Laboratory results published in US20220111034A1, “VIRUS COMPOSITIONS” (priority 2019, published 2022).

How the values were obtained:
[1] = tested on: Lec2, Lec2-JAM-A, CHO and CHO-JAM-A cells; assay: Infection of in vitro cultured cells by reovirus (Example 6); assay type: cell-based; details: co-administered with the virus; for effect on infectivity of T3SA+ towards Lec2-JAM-A and CHO-JAM-A: compared to T3SA+ without glycan
Method: T3SA+ and T3SA− reovirus stocks are prepared and purified virions obtained as set forth in Example 1. Lec2, Lec2-JAM-A, CHO and CHO-JAM-A cells are prepared and cultured as set forth in Example 1.
The cells are infected with the reovirus at a suitable multiplicity of infection (MOI) in batch suspensions or in monolayers and infectivity is analysed by an appropriate assay, such as quantification of viral protein expression in infected cells or a plaque assay.

[2] = target: T1, σ1-α-SA complex (Reovirus type 3, UniProt P03528); assay: FD-based AFM single-virus force spectroscopy on α-SA-coated model surfaces; assay type: binding; details: injection of 1 mM free glycan, FIG. 3b
T1 construct: made in house; host or cells: L929 cells (virus-infected)
T1 sequence (P03528 1-455): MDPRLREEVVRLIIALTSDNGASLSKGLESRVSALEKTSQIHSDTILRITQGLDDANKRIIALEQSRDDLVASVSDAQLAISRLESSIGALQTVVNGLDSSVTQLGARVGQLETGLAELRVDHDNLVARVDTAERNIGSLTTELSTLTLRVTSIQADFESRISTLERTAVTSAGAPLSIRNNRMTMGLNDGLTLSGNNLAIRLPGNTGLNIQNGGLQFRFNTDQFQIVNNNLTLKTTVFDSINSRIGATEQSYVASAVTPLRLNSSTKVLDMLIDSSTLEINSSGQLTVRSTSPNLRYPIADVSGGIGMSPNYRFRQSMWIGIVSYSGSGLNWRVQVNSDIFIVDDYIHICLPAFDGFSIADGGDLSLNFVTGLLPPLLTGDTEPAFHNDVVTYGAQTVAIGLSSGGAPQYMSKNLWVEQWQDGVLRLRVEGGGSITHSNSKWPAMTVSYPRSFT
Method: NHS-PEG27-acetal linkers were used to functionalize AFM tips as described (Gruber. Crosslinkers and Protocols for AFM Tip Functionalization. https://wwwjku.at/institut-fuer-biophysik/forschung/linked, 2018; Wildling et al. Linking of sensor molecules with amino groups to aminofunctionalized AFM tips. Bioconjug. Chem. 2011, vol. 22, 1239-1248). AFM tips (PFQNM-LC and MSCT probes, Bruker) were immersed in chloroform for 10 min, rinsed with ethanol, dried with a stream of filtered nitrogen, cleaned for 10 min using an ultraviolet radiation and ozone (UV-0) cleaner (Jetlight), and immersed overnight in an ethanolamine solution (3.3 g of ethanolamine hydrochloride in 6.6 mL of DMSO). The cantilevers were washed three times with DMSO, and two times with ethanol and dried with nitrogen. To ensure a low grafting density of the linker on the AFM tip, 1 mg of acetal-PEG27-NHS was diluted in 0.5 mL of chloroform with 30 μL of […] (Gruber, supra; Wildling et al., supra). Ethanolamine-coated cantilevers were immersed for 2 h in this solution, washed three times with chloroform, and dried with nitrogen. Cantilevers were then immersed for 10 min in 1% citric acid in milliQ water, washed three times with milliQ water, and dried with nitrogen. Virus solution (80 μL at ˜10^8 to 10^9 particles mL^−1) was pipetted onto the tips placed on Parafilm (Bemis NA) in a small plastic dish stored within an icebox. A freshly prepared solution of NaCNBH3 (2 μL at ˜6% wt. in 0.1 M NaOH(aq)) was gently mixed into the virus solution, and the cantilever chips were gently positioned with the cantilevers extending into the virus drop. The icebox was incubated at 4° C. for 1 h. Then, 5 μL of 1 M ethanolamine solution (pH 8) was gently mixed into the drop to quench the reaction. The icebox was incubated at 4° C. for an additional 10 min, and the cantilever chips were removed, washed three times in ice-cold PBS, and stored in individual wells of a multiwell dish containing 2 mL of ice-cold virus buffer (150 mM NaCl, 15 mM MgCl2, 10 mM Tris, pH adjusted to 7.4) per well until used in AFM experiments. […]

Compound: sialyl-lacto-N-tetraose a [LSTa]
- effect on infectivity of T3SA− towards Lec2-JAM-A or CHO-JAM-A [1]: do not affect infectivity
- effect on infectivity of T3SA+ towards Lec2-JAM-A and CHO-JAM-A [1]: significantly increase infectivity
- competition with T3SA+ binding to SA [2]: strongly competed

Compound: CC(=O)N[C@H]1[C@H](O[C@H]2[C@@H](O)[C@@H](CO)O[C@@H](O[C@H]3[C@H](O)[C@@H](O)C(O)O[C@@H]3CO)[C@@H]2O)O[C@H](CO)[C@@H](O[C@@H]2O[C@H](CO)[C@H](O)[C@H](O)[C@H]2O)[C@@H]1O (mixture of isomers) [LNnT, lacto-N-neotetraose, reference compound]
- effect on infectivity of T3SA+ towards Lec2-JAM-A and CHO-JAM-A [1]: does not affect infectivity
- competition with T3SA+ binding to SA [2]: but not LNnT strongly competed

Compound: CC(=O)N[C@H]1[C@H]([C@H](O)[C@H](O)CO)OC(O)(C(=O)O)C[C@@H]1O (some centres unmarked) [Neu5Ac, N-acetylneuraminic acid]
- effect on infectivity of T3SA− towards Lec2-JAM-A or CHO-JAM-A [1]: do not affect infectivity
- effect on infectivity of T3SA+ towards Lec2-JAM-A and CHO-JAM-A [1]: significantly increase infectivity
- competition with T3SA+ binding to SA [2]: strongly competed
